We go through 6 compounds from ChEMBL document CHEMBL3611970, “Synthesis and evaluation of isatin-β-thiosemicarbazones as novel agents against antibiotic-resistant Gram-positive bacterial species” (2015).

Values after ≈ are worked out from the molar mass of the structure shown. Where only a bound is given, the exact number is not on record here.

What all share (assay type): functional
Test [1] has as its system Staphylococcus aureus. Nature of the test: Antimicrobial activity against methicillin-resistant Staphylococcus aureus 309-8 clinical isolate after 16 hrs by broth microdilution method. As to conditions: 309-8, 16 h. A general note: Broth dilution looks for growth in wells or tubes with falling amounts of substance.
Test [2] relates to Staphylococcus aureus. Nature of the test: Antimicrobial activity against methicillin-resistant Staphylococcus aureus 6-42 clinical isolate after 16 hrs by broth microdilution method. As to conditions: 6-42, 16 h.
Test [3] has as its system Staphylococcus aureus. Nature of the test: Antimicrobial activity against methicillin-resistant Staphylococcus aureus 309-6 clinical isolate after 16 hrs by broth microdilution method. As to conditions: 309-6, 16 h.
In test [4] the test system is Bacillus spizizenii. Nature of the test: Antimicrobial activity against Bacillus subtilis ATCC 6633 after 16 hrs by broth microdilution method. As to conditions: ATCC 6633, 16 h.
Test [5] has as its system Klebsiella pneumoniae. Nature of the test: Antimicrobial activity against Klebsiella pneumoniae KP-249 clinical isolate after 16 hrs by broth microdilution method. As to conditions: KP-249, 16 h.
For test [6], the system named is Staphylococcus aureus. Nature of the test: Antimicrobial activity against methicillin-resistant Staphylococcus aureus 309-7 clinical isolate after 16 hrs by broth microdilution method. As to conditions: 309-7, 16 h.
Test [7] has as its system Enterococcus faecalis. Briefly: Antimicrobial activity against vancomycin-susceptible Enterococcus faecalis after 16 hrs by broth microdilution method.
The test system of test [8] is Staphylococcus aureus. Nature of the test: Antimicrobial activity against methicillin-resistant Staphylococcus aureus 309-4 clinical isolate after 16 hrs by broth microdilution method. As to conditions: 309-4, 16 h.
For test [9], the system named is Staphylococcus aureus. Nature of the test: Antimicrobial activity against methicillin-resistant Staphylococcus aureus 6281 clinical isolate after 16 hrs by broth microdilution method. As to conditions: Staphylococcus aureus, 6281, 16 h.
Test [10] concerns Staphylococcus aureus. Nature of the test: Antimicrobial activity against methicillin-resistant Staphylococcus aureus 8-21 clinical isolate after 16 hrs by broth microdilution method. As to conditions: 8-21, 16 h.
Test [11] relates to Staphylococcus aureus. Briefly: Antimicrobial activity against methicillin-resistant Staphylococcus aureus 8-24 clinical isolate after 16 hrs by broth microdilution method. As to conditions: 8-24, 16 h.
Test [12] concerns Staphylococcus aureus. Briefly: Antimicrobial activity against methicillin-resistant Staphylococcus aureus 309-3 clinical isolate after 16 hrs by broth microdilution method. As to conditions: 309-3, 16 h.
Test [13] relates to Enterococcus faecalis. Nature of the test: Antimicrobial activity against Enterococcus faecalis VRE-309 after 16 hrs by broth microdilution method. As to conditions: VRE-309, 16 h.
For test [14], the system named is Staphylococcus aureus. Briefly: Antimicrobial activity against methicillin-resistant Staphylococcus aureus 309-1 clinical isolate after 16 hrs by broth microdilution method. As to conditions: 309-1, 16 h.
The test system of test [15] is Pseudomonas aeruginosa. Nature of the test: Antimicrobial activity against Pseudomonas aeruginosa PAO1 after 16 hrs by broth microdilution method. As to conditions: PAO1, 16 h.
The test system of test [16] is Staphylococcus aureus. Briefly: Antimicrobial activity against methicillin-resistant Staphylococcus aureus Chaoyang clinical isolate after 16 hrs by broth microdilution method.
Test [17] has as its system Staphylococcus aureus. Nature of the test: Antimicrobial activity against Staphylococcus aureus ATCC 6538 after 16 hrs by broth microdilution method. As to conditions: ATCC 6538, 16 h.

For orientation: MIC means the smallest concentration in the dilution series that meets the test's criterion for growth inhibition. A low value points to a more susceptible organism. Turning to `O=C1Nc2c(Br)cccc2/C1=N/NC(=S)Nc1cccc(F)c1`, the minimum inhibitory concentration (MIC) is 0.78 µg/mL (≈ 1.98 µM) in test [1]; 0.78 µg/mL (≈ 1.98 µM) in test [2]; 1.56 µg/mL (≈ 3.97 µM) in test [3]; at most 0.78 µg/mL in [4]; over 100 µg/mL in [5]; 0.39 µg/mL (≈ 0.992 µM) in test [6]. Also, the MIC turned out to be 3.12 µg/mL (≈ 7.93 µM) in test [7]; 0.78 µg/mL (≈ 1.98 µM) in test [8]; 1.56 µg/mL (≈ 3.97 µM) in test [9]; 0.78 µg/mL (≈ 1.98 µM) in [10]; 0.78 µg/mL (≈ 1.98 µM) in [11]; 0.78 µg/mL (≈ 1.98 µM) in test [12]. The MIC in test [13] was 1.56 µg/mL (≈ 3.97 µM); in test [14], 0.78 µg/mL (≈ 1.98 µM); in [15], over 100 µg/mL; in test [16], 0.39 µg/mL (≈ 0.992 µM); in test [17], 1.56 µg/mL (≈ 3.97 µM).

Turning to `O=C1Nc2c(Br)cccc2/C1=N/NC(=S)Nc1cccc(Cl)c1`, the MIC in test [1] was 1.56 µg/mL (≈ 3.81 µM); in [2], 0.78 µg/mL (≈ 1.9 µM); in test [3], 1.56 µg/mL (≈ 3.81 µM); in [4], at most 0.78 µg/mL; in test [5], over 100 µg/mL; in test [6], 0.78 µg/mL (≈ 1.9 µM). Moreover, the MIC in test [7] was determined as 3.12 µg/mL (≈ 7.62 µM); in test [8], 0.78 µg/mL (≈ 1.9 µM); in test [9], 1.56 µg/mL (≈ 3.81 µM); in test [10] it was 1.56 µg/mL (≈ 3.81 µM); in test [11], 1.56 µg/mL (≈ 3.81 µM); in [12] it was 1.56 µg/mL (≈ 3.81 µM). Also, the MIC in test [13] was 1.56 µg/mL (≈ 3.81 µM); in [14], 1.56 µg/mL (≈ 3.81 µM); in test [15], over 100 µg/mL; in test [16], 0.39 µg/mL (≈ 0.952 µM); in test [17] it was 1.56 µg/mL (≈ 3.81 µM).

With `O=C1Nc2c(Br)cccc2/C1=N/NC(=S)Nc1ccc(Br)cc1`, the MIC in test [1] was 1.56 µg/mL (≈ 3.44 µM); in [2], 0.78 µg/mL (≈ 1.72 µM); in [3] it was 1.56 µg/mL (≈ 3.44 µM); in test [4], 1.56 µg/mL (≈ 3.44 µM); in [5], over 100 µg/mL; in test [6], 0.78 µg/mL (≈ 1.72 µM). Besides, the MIC in [7] stood at 3.12 µg/mL (≈ 6.87 µM); in test [8] it was 0.78 µg/mL (≈ 1.72 µM); in test [9], 3.12 µg/mL (≈ 6.87 µM); in test [10], 1.56 µg/mL (≈ 3.44 µM); in test [11] it was 1.56 µg/mL (≈ 3.44 µM); in test [12], 1.56 µg/mL (≈ 3.44 µM). The MIC is 1.56 µg/mL (≈ 3.44 µM) in test [13]; 1.56 µg/mL (≈ 3.44 µM) in test [14]; over 100 µg/mL in test [15]; 0.39 µg/mL (≈ 0.859 µM) in [16]; 3.12 µg/mL (≈ 6.87 µM) in test [17].

Regarding `COc1ccc(NC(=S)N/N=C2\C(=O)Nc3c(Br)cccc32)cc1`, the minimal inhibitory concentration (MIC) in [1] is 1.56 µg/mL (≈ 3.85 µM); in test [2], 0.78 µg/mL (≈ 1.92 µM); in [3], 6.25 µg/mL (≈ 15.4 µM); in [4] it was at most 0.78 µg/mL; in [5] it was over 100 µg/mL; in test [6], 0.78 µg/mL (≈ 1.92 µM). Also, the MIC is over 100 µg/mL in test [7]; 1.56 µg/mL (≈ 3.85 µM) in test [8]; 6.25 µg/mL (≈ 15.4 µM) in test [9]; 1.56 µg/mL (≈ 3.85 µM) in test [10]; 1.56 µg/mL (≈ 3.85 µM) in test [11]; 3.12 µg/mL (≈ 7.7 µM) in test [12]. In addition, the minimal inhibitory concentration (MIC) in test [13] is over 100 µg/mL; in test [14], 1.56 µg/mL (≈ 3.85 µM); in [15], over 100 µg/mL; in test [16] it was 0.78 µg/mL (≈ 1.92 µM); in test [17], 6.25 µg/mL (≈ 15.4 µM).

On to `O=C1Nc2c(I)cccc2/C1=N/NC(=S)Nc1ccccc1F`, for which the minimal inhibitory concentration (MIC) is 1.56 µg/mL (≈ 3.54 µM) in test [1]; 0.78 µg/mL (≈ 1.77 µM) in test [2]; 3.12 µg/mL (≈ 7.09 µM) in test [3]; at most 0.78 µg/mL in test [4]; over 100 µg/mL in [5]; 0.78 µg/mL (≈ 1.77 µM) in [6]. The MIC was determined as 12.5 µg/mL (≈ 28.4 µM) in [7]; 1.56 µg/mL (≈ 3.54 µM) in test [8]; 6.25 µg/mL (≈ 14.2 µM) in test [9]; 1.56 µg/mL (≈ 3.54 µM) in test [10]; 1.56 µg/mL (≈ 3.54 µM) in test [11]; 3.12 µg/mL (≈ 7.09 µM) in [12]. In addition, the MIC in test [13] was 6.25 µg/mL (≈ 14.2 µM); in [14] it was 1.56 µg/mL (≈ 3.54 µM); in test [15], over 100 µg/mL; in test [16], 0.78 µg/mL (≈ 1.77 µM); in test [17] it was 3.12 µg/mL (≈ 7.09 µM).

For `COc1ccccc1NC(=S)N/N=C1\C(=O)Nc2c(I)cccc21`, the minimal inhibitory concentration (MIC) in test [1] was 12.5 µg/mL (≈ 27.6 µM); in test [2], 6.25 µg/mL (≈ 13.8 µM); in test [3], 25 µg/mL (≈ 55.3 µM); in [4], 1.56 µg/mL (≈ 3.45 µM); in test [5] it was over 100 µg/mL; in [6], 6.25 µg/mL (≈ 13.8 µM). Besides, the MIC in test [7] was over 100 µg/mL; in test [8], 12.5 µg/mL (≈ 27.6 µM); in test [9], 25 µg/mL (≈ 55.3 µM); in [10], 12.5 µg/mL (≈ 27.6 µM); in [11], 12.5 µg/mL (≈ 27.6 µM); in test [12], 25 µg/mL (≈ 55.3 µM). Besides, the MIC is over 100 µg/mL in test [13]; 12.5 µg/mL (≈ 27.6 µM) in test [14]; over 100 µg/mL in test [15]; 6.25 µg/mL (≈ 13.8 µM) in test [16]; over 100 µg/mL in [17].
